Biological target: CD73 (Homo sapiens (Human), UniProt P21589)
Experiment: Biochemical Assay (CD73 inhibition, AMP hydrolysis, Malachite Green readout)
Conditions: CD73 0.3208 nM, AMP 15 μM, Tris-HCl pH 7.4, Malachite Green absorbance

CD73, sequence (P21589 27-574): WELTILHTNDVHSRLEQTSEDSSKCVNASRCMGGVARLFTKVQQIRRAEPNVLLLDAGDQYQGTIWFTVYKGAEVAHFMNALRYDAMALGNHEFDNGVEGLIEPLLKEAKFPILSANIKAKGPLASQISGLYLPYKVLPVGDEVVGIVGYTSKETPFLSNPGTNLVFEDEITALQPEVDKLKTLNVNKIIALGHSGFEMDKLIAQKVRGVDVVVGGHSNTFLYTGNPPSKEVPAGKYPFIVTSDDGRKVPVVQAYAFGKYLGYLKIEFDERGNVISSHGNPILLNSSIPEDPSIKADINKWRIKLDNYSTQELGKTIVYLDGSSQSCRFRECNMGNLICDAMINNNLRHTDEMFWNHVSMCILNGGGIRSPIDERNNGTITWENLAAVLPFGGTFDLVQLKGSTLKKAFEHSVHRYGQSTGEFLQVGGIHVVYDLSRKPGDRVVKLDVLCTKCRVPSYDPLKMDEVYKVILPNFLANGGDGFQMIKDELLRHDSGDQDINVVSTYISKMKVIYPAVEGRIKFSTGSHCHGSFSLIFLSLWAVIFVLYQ

Compound	IC50
CN(Cc1ccccc1)c1nc(Cl)nc2c1cnn2[C@@H]1O[C@H](COCP(=O)(O)O)[C@@H](O)[C@H]1O [Example 7, ((((2R,3S,4R,5R)-5-(4-(Benzyl(methyl)amino)-6-chloro-1H-pyrazolo[3,4-d]pyrimidin-1-yl)-3,4-dihydroxytetrahydrofuran-2-yl)methoxy)methyl)phosphonic acid]	≤ 500 nM
O=P(O)(O)COC[C@H]1O[C@@H](n2ncc3c(N[C@H]4CCc5ccccc54)nc(Cl)nc32)[C@H](O)[C@@H]1O [Example 25, ((((2R,3S,4R,5R)-5-(6-chloro-4-(((S)-2,3-dihydro-1H-inden-1-yl)amino)-1H-pyrazolo[3,4-d]pyrimidin-1-yl)-3,4-dihydroxytetrahydrofuran-2-yl)methoxy)methyl)phosphonic acid]	≤ 500 nM
O=P(O)(O)COC[C@H]1O[C@@H](n2ncc3c(NCC4CC4)nc(Cl)nc32)[C@H](O)[C@@H]1O [Example 38, ((((2R,3S,4R,5R)-5-(6-chloro-4-((cyclopropylmethyl)amino)-1H-pyrazolo[3,4-d]pyrimidin-1-yl)-3,4-dihydroxytetrahydrofuran-2-yl)methoxy)methyl)phosphonic acid]	≤ 500 nM
O=P(O)(O)CS(=O)(=O)C[C@H]1O[C@@H](n2ncc3c(NC4CCC4)nc(Cl)nc32)[C@H](O)[C@@H]1O [Example 107, (((((2S,3S,4R,5R)-5-(6-chloro-4-(cyclobutylamino)-1H-pyrazolo[3,4-d]pyrimidin-1-yl)-3,4-dihydroxytetrahydrofuran-2-yl)methyl)sulfonyl)methyl)phosphonic acid]	≤ 500 nM
O=P(O)(O)COC[C@H]1O[C@@H](n2ncc3c(N[C@@H]4CCOC4)nc(Cl)nc32)[C@H](O)[C@@H]1O [Example 80, ((((2R,3S,4R,5R)-5-(6-chloro-4-(((R)-tetrahydrofuran-3-yl)amino)-1H-pyrazolo[3,4-d]pyrimidin-1-yl)-3,4-dihydroxytetrahydrofuran-2-yl)methoxy)methyl)phosphonic acid]	≤ 500 nM
O=P(O)(O)COCC[C@H]1O[C@@H](n2ncc3c(NCC4CC4)nc(Cl)nc32)[C@H](O)[C@@H]1O [Example 85, ((2-((2R,3S,4R,5R)-5-(6-chloro-4-((cyclopropylmethyl)amino)-1H-pyrazolo[3,4-d]pyrimidin-1-yl)-3,4-dihydroxytetrahydrofuran-2-yl)ethoxy)methyl)phosphonic acid]	> 1000 nM
O=P(O)(O)COC[C@H]1O[C@@H](n2ncc3c(NCc4cccc(Cl)c4)nc(Cl)nc32)[C@H](O)[C@@H]1O [Example 27, ((((2R,3S,4R,5R)-5-(6-chloro-4-((3-chlorobenzyl)amino)-1H-pyrazolo[3,4-d]pyrimidin-1-yl)-3,4-dihydroxytetrahydrofuran-2-yl)methoxy)methyl)phosphonic acid]	≤ 500 nM
O=P(O)(O)CS(=O)(=O)C[C@H]1O[C@@H](n2nnc3c(NCC4CCC4)nc(Cl)nc32)[C@H](O)[C@@H]1O [Example 113, (((((2S,3S,4R,5R)-5-(5-chloro-7-((cyclobutylmethyl)amino)-3H-[1,2,3]triazolo[4,5-d]pyrimidin-3-yl)-3,4-dihydroxytetrahydrofuran-2-yl)methyl)sulfonyl)methyl)phosphonic acid]	≤ 500 nM
CN(c1nc(Cl)nc2c1nnn2[C@@H]1O[C@H](COC(=O)CP(=O)(O)O)[C@@H](O)[C@H]1O)[C@H]1CCc2ccccc21 [Example 11, (2-(((2R,3S,4R,5R)-5-(5-chloro-7-(((S)-2,3-dihydro-1H-inden-1-yl)(methyl)amino)-3H-[1,2,3]triazolo[4,5-d]pyrimidin-3-yl)-3,4-dihydroxytetrahydrofuran-2-yl)methoxy)-2-oxoethyl)phosphonic acid]	> 1000 nM
CN(Cc1cccc(Cl)c1)c1nc(Cl)nc2c1cnn2[C@@H]1O[C@H](COCP(=O)(O)O)[C@@H](O)[C@H]1O [Example 37, ((((2R,3S,4R,5R)-5-(6-chloro-4-((3-chlorobenzyl)(methyl)amino)-1H-pyrazolo[3,4-d]pyrimidin-1-yl)-3,4-dihydroxytetrahydrofuran-2-yl)methoxy)methyl)phosphonic acid]	≤ 500 nM
O=P(O)(O)COC[C@H]1O[C@@H](n2ncc3c(NC4CC4)nc(Cl)nc32)[C@H](O)[C@@H]1O [Example 76, ((((2R,3S,4R,5R)-5-(6-chloro-4-(cyclopropylamino)-1H-pyrazolo[3,4-d]pyrimidin-1-yl)-3,4-dihydroxytetrahydrofuran-2-yl)methoxy)methyl)phosphonic acid]	≤ 500 nM
Cc1cccc(CNc2nc(Cl)nc3c2cnn3[C@@H]2O[C@H](COCP(=O)(O)O)[C@@H](O)[C@H]2O)c1 [Example 41, ((((2R,3S,4R,5R)-5-(6-chloro-4-((3-methylbenzyl)amino)-1H-pyrazolo[3,4-d]pyrimidin-1-yl)-3,4-dihydroxytetrahydrofuran-2-yl)methoxy)methyl)phosphonic acid]	≤ 500 nM
